Compound: COc1cc([C@@H]2c3cc4c(cc3[C@@H](O[C@@H]3O[C@@H]5CO[C@@H](C)O[C@H]5[C@H](O)[C@H]3O)[C@H]3COC(=O)[C@H]23)OCO4)cc(OC)c1O [Etoposide] + NC(=O)Nc1cc(-c2cccc(F)c2)sc1C(=O)N[C@H]1CCCNC1 [AZD7762] (partner 0.2 µM)
Experiment: relative viability (nuclei count vs DMSO), 5 days (fraction); higher = more cells survive
Conditions: first compound 0.01 µM
Method in brief: (§1)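 Nuclei were stained with Hoechst during a one-step fixation (final 0.05% Triton X-100, 1% formaldehyde, 1 ug/ml Hoechst) carried out 5 days after dosing, then counted on 4× images. The cells, lung cancer lines in 1536-well plates, had been dosed by pin tool the day after seeding with one drug alone or a fixed anchor-drug dose plus five library-drug doses (not always all listed) in √10 steps. Relative viability is the nuclei count in treated wells divided by that in vehicle wells, and each value is the median of duplicate plates.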

Cell Line	relative viability
NCI-H522	0.891
NCI-H838	0.884
NCI-H1703	0.149
NCI-H2087	1.46
PC-14	0.338
LCLC-103H	0.756
NCI-H596	0.923
EMC-BAC-2	1.06
NCI-H2085	0.831
HCC-366	0.227
NCI-H1666	0.852
NCI-H647	0.417
LK-2	0.395
NCI-H2126	0.93
NCI-H2342	0.573
H3255	0.949
SW 900	0.561
CAL-12T	0.567

Same assay, conditions: first compound 0.03162 µM

Cell Line	relative viability
NCI-H522	0.97
NCI-H838	0.857
NCI-H1703	0.126
NCI-H1993	0.838
NCI-H2087	1.3
PC-14	0.396
LCLC-103H	0.787
NCI-H596	1.21
EMC-BAC-2	1.11
NCI-H2085	0.905
HCC-366	0.251
NCI-H1666	0.99
NCI-H647	0.323
LK-2	0.659
NCI-H2126	1.08
NCI-H2342	0.441
H3255	0.95
SW 900	0.7
NCI-H1648	0.762
CAL-12T	0.792

Same assay, conditions: first compound 0.1 µM

Cell Line	relative viability
NCI-H522	0.69
NCI-H838	0.805
NCI-H1993	0.474
NCI-H2087	1.3
PC-14	0.317
LCLC-103H	0.597
NCI-H596	0.662
EMC-BAC-2	0.688
NCI-H2085	0.803
HCC-366	0.187
NCI-H1666	0.814
NCI-H647	0.307
LK-2	0.255
NCI-H2126	0.681
NCI-H2342	0.337
H3255	0.726
SW 900	0.379
NCI-H1648	0.991
CAL-12T	0.613

Same assay, conditions: first compound 0.3162 µM

Cell Line	relative viability
NCI-H522	0.761
NCI-H838	0.787
NCI-H1703	0.121
NCI-H1993	0.759
NCI-H2087	1.08
PC-14	0.307
LCLC-103H	0.742
NCI-H596	1.3
EMC-BAC-2	0.639
NCI-H2085	0.911
HCC-366	0.091
NCI-H1666	0.583
NCI-H647	0.165
LK-2	0.319
NCI-H2126	0.948
NCI-H2342	0.433
H3255	0.66
SW 900	0.539
NCI-H1648	0.722
CAL-12T	0.477

Same assay, conditions: first compound 1 µM

Cell Line	relative viability
NCI-H522	0.824
NCI-H838	0.722
NCI-H1703	0.114
NCI-H1993	0.596
NCI-H2087	0.78
PC-14	0.17
LCLC-103H	0.608
NCI-H596	0.705
EMC-BAC-2	0.334
NCI-H2085	0.453
HCC-366	0.0373
NCI-H1666	0.532
NCI-H647	0.0849
LK-2	0.2
NCI-H2126	0.919
NCI-H2342	0.4
H3255	0.668
SW 900	0.293
NCI-H1648	0.451
CAL-12T	0.409

Compound: COc1cc([C@@H]2c3cc4c(cc3[C@@H](O[C@@H]3O[C@@H]5CO[C@@H](C)O[C@H]5[C@H](O)[C@H]3O)[C@H]3COC(=O)[C@H]23)OCO4)cc(OC)c1O [Etoposide] + Nc1ncn([C@H]2C[C@H](O)[C@@H](CO)O2)c(=O)n1 [Decitabine] (partner 2 µM)
Experiment: as above
Conditions: first compound 0.01 µM
Method in brief: as §1

Cell Line	relative viability
NCI-H522	0.702
NCI-H838	0.445
NCI-H1650	0.346
NCI-H2087	0.287
PC-14	0.242
LCLC-103H	0.763
NCI-H596	0.826
EMC-BAC-2	0.938
NCI-H2085	0.609
HCC-366	0.357
NCI-H1666	0.746
NCI-H647	0.363
LK-2	0.289
NCI-H2126	0.584
NCI-H2342	0.599
SK-MES-1	0.344
H3255	0.547
COR-L23	0.407
COR-L 105	0.616
A549	0.24
SW 900	0.443
NCI-H2009	0.396
NCI-H520	0.532
SW 1573	0.434
NCI-H2023	0.246
SK-LU-1	0.561
NCI-H661	0.558

Same assay, conditions: first compound 0.03162 µM

Cell Line	relative viability
NCI-H522	0.655
NCI-H838	0.487
NCI-H1650	0.314
NCI-H1993	0.609
NCI-H2087	0.3
PC-14	0.248
LCLC-103H	0.835
NCI-H596	1.05
EMC-BAC-2	0.893
NCI-H2085	0.573
HCC-366	0.334
NCI-H1666	0.798
NCI-H647	0.369
LK-2	0.302
NCI-H2126	0.636
NCI-H2342	0.677
SK-MES-1	0.481
H3255	0.94
COR-L23	0.471
COR-L 105	0.613
A549	0.326
SW 900	0.428
NCI-H1648	0.513
NCI-H2009	0.425
NCI-H520	0.493
SW 1573	0.5
NCI-H2023	0.247
SK-LU-1	0.604
NCI-H661	0.671

Same assay, conditions: first compound 0.1 µM

Cell Line	relative viability
NCI-H522	0.502
NCI-H838	0.49
NCI-H1650	0.355
NCI-H1993	0.482
NCI-H2087	0.276
PC-14	0.258
LCLC-103H	0.766
NCI-H596	1.09
EMC-BAC-2	0.606
NCI-H2085	0.484
HCC-366	0.189
NCI-H1666	0.693
NCI-H647	0.31
LK-2	0.159
NCI-H2126	0.486
NCI-H2342	0.477
SK-MES-1	0.35
H3255	0.417
COR-L23	0.337
COR-L 105	0.567
A549	0.195
SW 900	0.361
NCI-H1648	0.454
NCI-H2009	0.316
NCI-H520	0.519
SW 1573	0.243
NCI-H2023	0.204
SK-LU-1	0.513
NCI-H661	0.477

Same assay, conditions: first compound 0.3162 µM

Cell Line	relative viability
NCI-H522	0.872
NCI-H838	0.367
NCI-H1650	0.195
NCI-H1993	0.599
NCI-H2087	0.214
PC-14	0.182
LCLC-103H	0.71
NCI-H596	1.01
EMC-BAC-2	0.323
NCI-H2085	0.373
HCC-366	0.102
NCI-H1666	0.582
NCI-H647	0.193
LK-2	0.177
NCI-H2126	0.476
NCI-H2342	0.373
SK-MES-1	0.238
H3255	0.474
COR-L23	0.377
COR-L 105	0.605
A549	0.114
SW 900	0.297
NCI-H1648	0.466
NCI-H2009	0.354
NCI-H520	0.424
SW 1573	0.159
NCI-H2023	0.146
SK-LU-1	0.306
NCI-H661	0.46

Same assay, conditions: first compound 1 µM

Cell Line	relative viability
NCI-H522	0.571
NCI-H838	0.248
NCI-H1650	0.182
NCI-H1993	0.461
NCI-H2087	0.102
PC-14	0.103
LCLC-103H	0.599
NCI-H596	0.857
EMC-BAC-2	0.298
NCI-H2085	0.374
HCC-366	0.0877
NCI-H1666	0.452
NCI-H647	0.175
LK-2	0.171
NCI-H2126	0.323
NCI-H2342	0.368
SK-MES-1	0.199
H3255	0.318
COR-L23	0.176
COR-L 105	0.569
A549	0.0774
SW 900	0.269
NCI-H1648	0.341
NCI-H2009	0.234
NCI-H520	0.376
SW 1573	0.0836
NCI-H2023	0.109
SK-LU-1	0.252
NCI-H661	0.343

Compound: COc1cc([C@@H]2c3cc4c(cc3[C@@H](O[C@@H]3O[C@@H]5CO[C@@H](C)O[C@H]5[C@H](O)[C@H]3O)[C@H]3COC(=O)[C@H]23)OCO4)cc(OC)c1O [Etoposide] + CS(=O)(=O)N1CCN(Cc2cc3nc(-c4cccc5[nH]ncc45)nc(N4CCOCC4)c3s2)CC1 [Pictilisib] (partner 1 µM)
Experiment: as above
Conditions: first compound 0.01 µM
Method in brief: as §1

Cell Line	relative viability
NCI-H838	0.461
NCI-H1650	0.506
EBC-1	0.362
NCI-H1703	0.234
NCI-H1993	0.804
PC-14	0.598
LCLC-103H	0.541
NCI-H596	0.398
NCI-H2228	0.351
EMC-BAC-2	0.511
NCI-H2085	0.513
Calu-6	0.841
HCC-366	0.198
NCI-H1666	0.469
NCI-H647	0.418
LK-2	0.573

Cell Line	relative viability
NCI-H2126	0.536
SK-MES-1	0.361
H3255	0.498
COR-L23	0.733
COR-L 105	0.374
IA-LM	0.398
A549	0.49
NCI-H2009	0.693
NCI-H520	0.306
SW 1573	0.451
NCI-H1299	0.777
CAL-12T	0.508
NCI-H2023	0.225
NCI-H1563	0.661
SK-LU-1	0.603
NCI-H661	0.543

Same assay, conditions: first compound 0.03162 µM

Cell Line	relative viability
NCI-H838	0.544
NCI-H1650	0.572
EBC-1	0.384
NCI-H1703	0.313
NCI-H1993	0.802
NCI-H2087	1.09
PC-14	0.638
LCLC-103H	0.74
NCI-H596	0.427
NCI-H2228	0.411
EMC-BAC-2	0.515
NCI-H2085	0.491
Calu-6	0.908
HCC-366	0.188
NCI-H1666	0.233
NCI-H647	0.394
LK-2	0.572
NCI-H2126	0.55
SK-MES-1	0.336
